The values that follow come from ChEMBL document CHEMBL1155623, “New skeletal sesquiterpenoids, caprariolides A-D, from Capraria biflora and their insecticidal activity” (2000).

Molecules are shown by their SMILES.

The assay concerns Cylas formicarius. The assay is described as follows: Insecticidal activity in adult Cylas formicarius elegantulus measured per insect after 24 hrs. It counts as functional.
Consider `C[C@@H]1CC(c2ccoc2)=C[C@]2(C1)C[C@@H](C)C(=O)O2` [CAPRARIOLIDE B], for which the LD50 is recorded as 1.102 mg. As for `C[C@@H]1CC(c2ccoc2)=C[C@]2(C1)C[C@H](C)C(=O)O2` [CAPRARIOLIDE A], the figure is 0.902 mg; as for `C=CCc1ccc(O)c(OC)c1` [EUGENOL], 0.605 mg.
